Experiments:
B-Raf = B-Raf (Homo sapiens (Human), UniProt P15056); assay: Raf kinase assay (B-Raf), [33P] incorporation into MEK1(K97R); format: biochemical; settings: for inhibition at 1 µM: 1.0 μM compound, read-out: B-Raf inhibition at 1.0 μM
Summary of the method: (§1)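 [33P] transfer to kinase-dead MEK1(K97R) substrate (500 ng) measured after 30 min at 30 °C in Tris pH 7.5 buffer containing 8 μM ATP. Enzyme inputs were 2 ng for C-Raf and 5 ng for B-Raf and B-Raf V600E. Duplicate 3-fold serial dilutions gave the half-maximal inhibitory concentration.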

C-Raf = C-Raf (Homo sapiens (Human), UniProt P04049); assay: Raf kinase assay (C-Raf), [33P] incorporation into MEK1(K97R); format: biochemical
Sequence of C-Raf (P04049 whole entry): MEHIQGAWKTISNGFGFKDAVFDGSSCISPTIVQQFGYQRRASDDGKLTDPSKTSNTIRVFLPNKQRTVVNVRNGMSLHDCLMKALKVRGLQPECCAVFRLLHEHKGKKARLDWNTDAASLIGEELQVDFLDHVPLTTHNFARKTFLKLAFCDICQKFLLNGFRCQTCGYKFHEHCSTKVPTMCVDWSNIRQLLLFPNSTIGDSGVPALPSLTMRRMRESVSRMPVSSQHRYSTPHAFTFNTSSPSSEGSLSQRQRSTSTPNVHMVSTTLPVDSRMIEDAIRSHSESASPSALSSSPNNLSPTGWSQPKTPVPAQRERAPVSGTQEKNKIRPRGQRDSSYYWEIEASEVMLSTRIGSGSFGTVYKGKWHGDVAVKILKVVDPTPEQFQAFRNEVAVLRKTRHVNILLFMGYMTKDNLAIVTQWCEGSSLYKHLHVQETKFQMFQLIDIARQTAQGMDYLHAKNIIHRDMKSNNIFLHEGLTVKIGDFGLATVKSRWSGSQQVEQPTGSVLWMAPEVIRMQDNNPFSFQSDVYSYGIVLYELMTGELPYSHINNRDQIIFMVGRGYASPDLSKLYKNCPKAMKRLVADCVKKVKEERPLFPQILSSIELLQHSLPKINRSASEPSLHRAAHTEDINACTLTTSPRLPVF
Summary of the method: as §1

EGFR (T790M) kinase = EGFR (T790M) kinase (Homo sapiens (Human), UniProt P00533, T790M); assay: EGFR (T790M) kinase assay; format: biochemical
Sequence of EGFR (T790M) kinase (P00533 712-979 T790M): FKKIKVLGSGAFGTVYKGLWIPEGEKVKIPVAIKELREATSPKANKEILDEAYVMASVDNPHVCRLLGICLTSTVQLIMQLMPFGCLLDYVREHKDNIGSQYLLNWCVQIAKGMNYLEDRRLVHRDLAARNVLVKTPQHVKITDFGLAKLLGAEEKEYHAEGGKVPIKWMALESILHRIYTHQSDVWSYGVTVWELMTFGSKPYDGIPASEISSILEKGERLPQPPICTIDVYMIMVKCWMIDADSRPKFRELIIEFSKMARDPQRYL
Experimental: C. EGFR (T790M) Kinase Assay
Inhibition of EGFR (T790M) kinase activity by compounds disclosed herein was quantified by measuring the amount of [^33P] incorporated into the substrate in the presence of a test compound. Briefly, a reaction mixture of 25 μL final volume containing 25 ng of EGFR (T790M) kinase (EGFR (T790M) kinase domain alone, Millipore), 5 μg of the substrate [poly(Glu-Tyr), Sigma], kinase reaction buffer (10 mM MOPS pH 7.0, 0.3 mM EDTA, 0.5% glycerol, 0.001% Brij-35, 10 mM MnCl2, 0.1 mg/ml BSA, 100 μM ATP, 0.1 μCi per well [^33P]-γ-ATP (2,500-3,000 Ci/mmol)), and a test compound (100 nM; diluted with 4% DMSO) or DMSO (as the control) was incubated at 30° C. for 60 minutes. The reaction was stopped by adding 5 μL of 3% phosphoric acid solution. The resultant reaction solution was then harvested onto a filter plate (UniFilter-96 GF/B, PerkinElmer), washed 20 times for 5 min with d.d. […] The radioactivity retained on the filter membrane was measured by TopCount™ scintillation detector (PerkinElmer). The results were analyzed by using linear regression software (GraphPad Prism™ 4; GraphPad Software Inc.). The percentage of inhibition of EGFR (T790M) by the test compound was calculated by dividing the retained radioactivity of the test sample with the retained radioactivity of the control sample and shown in Table 4.

Cdk1 kinase = Cdk1 kinase (Homo sapiens (Human), UniProt P06493); assay: CDK1 kinase assay; format: biochemical
Sequence of Cdk1 kinase (P06493 4-287): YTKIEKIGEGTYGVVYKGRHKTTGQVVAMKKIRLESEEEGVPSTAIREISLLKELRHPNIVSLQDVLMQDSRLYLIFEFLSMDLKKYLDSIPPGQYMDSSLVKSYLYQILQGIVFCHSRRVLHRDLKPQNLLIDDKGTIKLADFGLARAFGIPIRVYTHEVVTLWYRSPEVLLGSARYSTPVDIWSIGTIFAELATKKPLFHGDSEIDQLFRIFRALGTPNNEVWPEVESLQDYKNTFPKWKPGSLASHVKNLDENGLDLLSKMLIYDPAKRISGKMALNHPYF
Sequence of Cdk1 kinase (P14635 whole entry partner, the tested form may be a part): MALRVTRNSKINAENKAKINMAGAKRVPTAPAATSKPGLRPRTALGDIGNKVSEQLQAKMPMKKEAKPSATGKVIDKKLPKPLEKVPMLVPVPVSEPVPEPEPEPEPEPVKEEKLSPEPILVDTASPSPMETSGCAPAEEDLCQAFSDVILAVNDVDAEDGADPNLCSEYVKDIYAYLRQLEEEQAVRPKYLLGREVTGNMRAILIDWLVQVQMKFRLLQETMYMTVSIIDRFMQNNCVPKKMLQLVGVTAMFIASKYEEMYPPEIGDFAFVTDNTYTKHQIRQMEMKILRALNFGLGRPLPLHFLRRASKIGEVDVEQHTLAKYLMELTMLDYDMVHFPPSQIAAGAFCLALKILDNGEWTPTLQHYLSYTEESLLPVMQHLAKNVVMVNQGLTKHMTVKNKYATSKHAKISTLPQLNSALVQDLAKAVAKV
Experimental: Inhibition of Cdk1 kinase activity by compounds disclosed herein was quantified by measuring the amount of [^33P] incorporated into the substrate in the presence of a test compound. Briefly, a reaction mixture of 25 μL final volume containing 5 ng of Cdk1 kinase (Cdk1 kinase domain alone, Millipore), 3 μg of the substrate [Histone H1], kinase reaction buffer (10 mM MOPS pH 7.0, 0.3 mM EDTA, 0.5% glycerol, 0.001% Brij-35, 0.1 mg/ml BSA, 10 μM ATP, 0.1 μCi per well [^33P]-γ-ATP (2,500-3,000 Ci/mmol)), and a test compound (100 nM, diluted with 4% DMSO) or DMSO (as the control) was incubated at 30° C. for 30 minutes. The reaction was stopped by adding 5 μL of 3% phosphoric acid solution. The resultant reaction solution was then harvested onto a filter plate (UniFilter-96 GF/B, PerkinElmer), washed 20 times for 5 min with d.d. H2O, and followed by the addition of 30 μL of MicroScint™-20 Cocktail (PerkinElmer). The radioactivity retained on the filter membrane was measured by TopCount™ scintillation detector (PerkinElmer). The results were analyzed by using linear regression software (GraphPad Prism™ 4; GraphPad Software Inc.).

COLO205 = assay: Anti-proliferative activity, CellTiter-96 assay, COLO205; format: cell-based; settings: Homo sapiens, COLO 205, COLO205 cells, 72 hours incubation
Summary of the method: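 Cells in DMEM with 10% FCS at 37° C., 5% CO2, plated at 2000 cells/well for 24 h, then exposed to graded compound concentrations for 72 h. CellTiter-96 Aqueous One reagent added for 4.0 h; viability read as absorbance at 490 nm.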

Sequence of B-Raf (P15056 whole entry): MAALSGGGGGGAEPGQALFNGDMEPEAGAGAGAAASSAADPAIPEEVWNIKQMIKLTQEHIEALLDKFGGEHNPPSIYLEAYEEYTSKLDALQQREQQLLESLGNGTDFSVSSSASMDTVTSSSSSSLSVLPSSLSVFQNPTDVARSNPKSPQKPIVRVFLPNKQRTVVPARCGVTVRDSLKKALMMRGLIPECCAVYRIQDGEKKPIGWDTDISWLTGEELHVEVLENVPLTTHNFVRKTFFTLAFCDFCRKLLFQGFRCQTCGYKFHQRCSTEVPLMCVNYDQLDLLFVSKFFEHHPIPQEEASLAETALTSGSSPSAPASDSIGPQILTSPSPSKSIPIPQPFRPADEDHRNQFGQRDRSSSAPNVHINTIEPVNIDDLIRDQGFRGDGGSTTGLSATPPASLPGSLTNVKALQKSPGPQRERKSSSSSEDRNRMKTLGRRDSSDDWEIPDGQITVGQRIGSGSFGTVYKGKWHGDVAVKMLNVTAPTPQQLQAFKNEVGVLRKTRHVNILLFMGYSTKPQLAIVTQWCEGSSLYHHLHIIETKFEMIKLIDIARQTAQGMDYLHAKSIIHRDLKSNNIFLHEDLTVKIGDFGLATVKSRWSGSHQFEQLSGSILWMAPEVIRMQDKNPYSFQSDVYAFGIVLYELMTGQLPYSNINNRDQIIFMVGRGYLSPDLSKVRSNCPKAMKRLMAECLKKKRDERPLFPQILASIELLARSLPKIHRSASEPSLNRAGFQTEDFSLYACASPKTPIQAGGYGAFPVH

Compound	IC50 (B-Raf)	inhibition at 1 µM (B-Raf)	IC50 (C-Raf)	inhibition at 1 µM (EGFR (T790M) kinase)	inhibition at 1 µM (Cdk1 kinase)	IC50 (COLO205)
COc1cc(-c2ccc3ncnc(Nc4cccc(O)c4)c3c2)ccc1O [Compound 8, 4-(4-(3-hydroxyphenylamino)quinazolin-6-yl)-2-methoxyphenol]	30.2 nM	94.2%	255 nM	66%	88%	6700 ± 100 nM
COc1cc(-c2ccc3ncnc(Nc4cc(O)ccc4F)c3c2)ccc1O [Compound 58, 4-(4-(2-fluoro-5-hydroxyphenylamino)quinazolin-6-yl)-2-methoxyphenol]	16.1 nM	92.6%	170 nM	60%	78%	3200 ± 300 nM

— patent publication US8785459B2, “Quinazoline compounds as kinase inhibitors” (Development Center for Biotechnology, priority 2011, dated 2014)
